{"source": "patent EP1203771A1", "about": "“REMEDIES OR PREVENTIVES FOR FREQUENT URINATION OR URINARY INCONTINENCE” (TORAY INDUSTRIES, INC., priority 1999, dated 2001)", "test_system": "Rhythmic Bladder Contraction of Rats", "assay": "Effect on rhythmic bladder contraction of rats (urethane-anesthetized, saline infusion into bladder, intravesical pressure)", "assay_type": "in vivo", "conditions": "anesthetized female SD rats", "experimental": "Effect on Rhythmic Bladder Contraction of Rats\nFemale SD rats were anesthetized with an intraperitoneal injection of urethane (1.0 g/kg). A polyethylene tube was inserted from urethral opening to the bladder and the tube was fixed by ligating. Physiological saline was appropriately infused via the tube (rate of infusion: about 0.2 ml/min; maximum dose: about 1.5 ml/rat) to induce rhythmic contraction of bladder. The rhythmic contraction of bladder was monitored by measuring the intravesical pressure through the polyethylene tube inserted into the bladder. After confirming that stable rhythmic contraction occurred at least 10 times, each test compound was intravenously administered at a doseof 1 ml/kg. If the intravesical pressure became, within 10 minutes from the administration of the test compound, not more than 50% of the intravesical pressure at the time point immediately after the administration of the test compound, it was judged that […], and the time period until the intravesical pressure again became not less than 50% was defined as the rhythmic bladder contraction-inhibiting time. As the solvent for administration of the test compounds, 5% xylitol was used for test Compounds 1, 2, 3, 4, 5, 11, 12, 21, 23 and 24; physiological saline was used for test Compounds 6, 9, 10, 13, 14, 15, 16, 17, 18, 19, 20 and 22; 10% ethanol solution was used for test Compound 7; and 10% DMSO solution was used for test Compound 8. The solvents 5% xylitol solution, 10% ethanol solution and 10% DMSO solution, each of which is said to somewhat influence on the rhythmic bladder contraction-inhibiting time, were also tested at the dose of 1 ml/kg. […]", "key": {"[1]": {"conditions": "30 mg/kg intravenously, solvent 5% xylitol"}, "[2]": {"conditions": "10 mg/kg intravenously, solvent 5% xylitol"}, "[3]": {"conditions": "3 mg/kg intravenously, solvent physiological saline"}, "[4]": {"conditions": "1 mg/kg intravenously, solvent physiological saline"}, "[5]": {"conditions": "10 mg/kg intravenously, solvent physiological saline"}}, "note": "Counter-ions that a name gives are not always drawn.", "data": [{"molecule": "O=C1Nc2c3c(nc4cccc1c24)[C@@H]1Oc2c(O)ccc4c2[C@@]12CCN(CC1CC1)[C@H](C4)[C@]2(O)C3", "note": "[Compound 1, 17-cyclopropylmethyl-6,7-dehydro-4,5α-epoxy-3,14β-dihydroxy-6,7,2',3'-[4',5'-[imino(oxomethano)]quinolino]morphinan hydrochloric acid salt]", "values": [{"measurement": "Mean Rhythmic Bladder Contraction-inhibiting Time", "setting": "[1]", "result": 6.2, "unit": "min"}]}, {"molecule": "CN1CC[C@]23c4c5ccc(O)c4O[C@H]2c2nc4ccccc4c(N)c2C[C@@]3(O)[C@H]1C5", "note": "[Compound 2, 17-methyl-6,7-dehydro-4,5α-epoxy-3,14β-dihydroxy-6,7,2',3'-(4'-aminoquinolino)morphinan methanesulfonic acid salt]", "values": [{"measurement": "Mean Rhythmic Bladder Contraction-inhibiting Time", "setting": "[2]", "result": 4.5, "unit": "min"}]}, {"molecule": "Oc1ccc2c3c1O[C@H]1c4nc5c(cc4C[C@@]4(O)[C@@H](C2)N(CC2CC2)CC[C@]314)cc1c2c(cccc25)CC1", "note": "[Compound 3, 17-cyclopropylmethyl-6,7-dehydro-4,5α-epoxy-3,14β-dihydroxy-6,7,2',3'-(6',6\"-ethano-7',8'-benzoquinolino)morphinan methanesulfonic acid salt]", "values": [{"measurement": "Mean Rhythmic Bladder Contraction-inhibiting Time", "setting": "20 mg/kg intravenously, solvent 5% xylitol", "result": 5.0, "unit": "min"}]}, {"molecule": "Cc1c2c(nc3ccccc13)[C@@H]1Oc3c(O)ccc4c3[C@@]13CCN(C)[C@H](C4)[C@]3(O)C2", "note": "[Compound 4, 17-methyl-6,7-dehydro-4,5α-epoxy-3,14β-dihydroxy-6,7,2',3'-(4'-methylquinolino)morphinan methanesulfonic acid salt]", "values": [{"measurement": "Mean Rhythmic Bladder Contraction-inhibiting Time", "setting": "[2]", "result": 13.9, "unit": "min"}]}, {"molecule": "CN1CC[C@]23c4c5ccc(O)c4O[C@H]2c2nc4ccccc4c(O)c2C[C@@]3(O)[C@H]1C5", "note": "[Compound 5, 17-methyl-6,7-dehydro-4,5α-epoxy-3,14β-dihydroxy-6,7,2',3'-(4'-hydroxyquinolino)morphinan methanesulfonic acid salt]", "values": [{"measurement": "Mean Rhythmic Bladder Contraction-inhibiting Time", "setting": "[1]", "result": 5.7, "unit": "min"}]}, {"molecule": "CN1CC[C@]23c4c5ccc(O)c4O[C@H]2c2nc4ccccc4cc2C[C@@]3(O)[C@H]1C5", "note": "[Compound 6, 17-methyl-6,7-dehydro-4,5α-epoxy-3,14β-dihydroxy-6,7,2',3'-quinolinomorphinane methanesulfonic acid salt]", "values": [{"measurement": "Mean Rhythmic Bladder Contraction-inhibiting Time", "setting": "[3]", "result": 24.1, "unit": "min"}]}, {"molecule": "Oc1ccc2c3c1O[C@H]1c4nc5ccccc5cc4C[C@@]4(O)[C@@H](C2)N(CCc2ccccc2)CC[C@]314", "note": "[Compound 7, 17-phenethyl-6,7-dehydro-4,5 α-epoxy-3,14β-dihydroxy-6,7,2',3'-quinolinomorphinan methanesulfonic acid salt]", "values": [{"measurement": "Mean Rhythmic Bladder Contraction-inhibiting Time", "setting": "5 mg/kg intravenously, solvent 10% ethanol solution", "result": 17.1, "unit": "min"}]}, {"molecule": "Oc1ccc2c3c1O[C@H]1c4nc5ccccc5cc4C[C@@]4(O)[C@@H](C2)N(CCc2cccs2)CC[C@]314", "note": "[Compound 8, 17-(2-thienyl)ethyl-6,7-dehydro-4,5α-epoxy-3,14β-dihydroxy-6,7,2',3'-quinolinomorphinan methanesulfonic acid salt]", "values": [{"measurement": "Mean Rhythmic Bladder Contraction-inhibiting Time", "setting": "10 mg/kg intravenously, solvent 10% DMSO solution", "result": 19.5, "unit": "min"}]}, {"molecule": "CO[C@@]12Cc3cc4ccccc4nc3[C@@H]3Oc4c(O)ccc5c4[C@@]31CCN(C)[C@@H]2C5", "note": "[Compound 9, 17-methyl-6,7-dehydro-4,5 α-epoxy-3-hydroxy-14 β -methoxy-6,7,2',3'-quinolinomorphinan methanesulfonic acid salt]", "values": [{"measurement": "Mean Rhythmic Bladder Contraction-inhibiting Time", "setting": "[4]", "result": 7.3, "unit": "min"}]}, {"molecule": "CN1CC[C@]23c4c5ccc(O)c4O[C@H]2c2nc4c(Cl)cccc4cc2C[C@@]3(O)[C@H]1C5", "note": "[Compound 10, 17-methyl-6,7-dehydro-4,5α-epoxy-3,14β-dihydroxy-6,7,2',3'-(8'-chloroquinolino)morphinan methanesulfonic acid salt]", "values": [{"measurement": "Mean Rhythmic Bladder Contraction-inhibiting Time", "setting": "[5]", "result": 7.4, "unit": "min"}]}, {"molecule": "CN1CC[C@]23c4c5ccc(O)c4O[C@H]2c2nc4ccc(Cl)cc4cc2C[C@@]3(O)[C@H]1C5", "note": "[Compound 11, 17-methyl-6,7-dehydro-4,5α-epoxy-3,14β-dihydroxy-6,7,2',3'-(6'-chloroquinolino)morphinan methanesulfonic acid salt]", "values": [{"measurement": "Mean Rhythmic Bladder Contraction-inhibiting Time", "setting": "[2]", "result": 12.4, "unit": "min"}]}, {"molecule": "CN1CC[C@]23c4c5ccc(O)c4O[C@H]2c2nc4cccc(Cl)c4cc2C[C@@]3(O)[C@H]1C5", "note": "[Compound 12, 17-methyl-6,7-dehydro-4,5α-epoxy-3,14β-dihydroxy-6,7,2',3'-(5'-chloroquinolino)morphinan tartaric acid salt]", "values": [{"measurement": "Mean Rhythmic Bladder Contraction-inhibiting Time", "setting": "0.3 mg/kg intravenously, solvent 5% xylitol", "result": 14.6, "unit": "min"}]}, {"molecule": "Cc1cccc2cc3c(nc12)[C@@H]1Oc2c(O)ccc4c2[C@@]12CCN(C)[C@H](C4)[C@]2(O)C3", "note": "[Compound 13, 17-methyl-6,7-dehydro-4,5α-epoxy-3,14β-dihydroxy-6,7,2',3'-(8'-methylquinolino)morphinan methanesulfonic acid salt]", "values": [{"measurement": "Mean Rhythmic Bladder Contraction-inhibiting Time", "setting": "[4]", "result": 6.5, "unit": "min"}]}, {"molecule": "Cc1ccc2nc3c(cc2c1)C[C@@]1(O)[C@H]2Cc4ccc(O)c5c4[C@@]1(CCN2C)[C@H]3O5", "note": "[Compound 14, 17-methyl-6,7-dehydro-4,5α-epoxy-3,14β-dihydroxy-6,7,2',3'-(6'-methylquinolino)morphinan methanesulfonic acid salt]", "values": [{"measurement": "Mean Rhythmic Bladder Contraction-inhibiting Time", "setting": "[3]", "result": 12.3, "unit": "min"}]}, {"molecule": "CN1CC[C@]23c4c5ccc(O)c4O[C@H]2c2nc4c(F)cccc4cc2C[C@@]3(O)[C@H]1C5", "note": "[Compound 15, 17-methyl-6,7-dehydro-4,5α-epoxy-3,14β-dihydroxy-6,7,2',3'-(8'-fluoroquinolino)morphinan tartaric acid salt]", "values": [{"measurement": "Mean Rhythmic Bladder Contraction-inhibiting Time", "setting": "[4]", "result": 10.7, "unit": "min"}]}, {"molecule": "CC(=O)Oc1ccc2c3c1O[C@H]1c4nc5ccccc5cc4C[C@@]4(OC(C)=O)[C@@H](C2)N(C)CC[C@]314", "note": "[Compound 16, 17-methyl-6,7-dehydro-4,5α-epoxy-3,14β-diacetoxy-6,7,2',3'-quinolinomorphinan tartaric acid salt]", "values": [{"measurement": "Mean Rhythmic Bladder Contraction-inhibiting Time", "setting": "0.3 mg/kg intravenously, solvent physiological saline", "result": 15.0, "unit": "min"}]}, {"molecule": "CC(=O)O[C@@]12Cc3cc4ccccc4nc3[C@@H]3Oc4c(O)ccc5c4[C@@]31CCN(C)[C@@H]2C5", "note": "[Compound 17, 17-methyl-6,7-dehydro-4,5α-epoxy-3-hydroxy-14β-acetoxy-6,7,2',3'-quinolinomorphinan tartaric acid salt]", "values": [{"measurement": "Mean Rhythmic Bladder Contraction-inhibiting Time", "setting": "[4]", "result": 7.4, "unit": "min"}]}, {"molecule": "CC(=O)Oc1ccc2c3c1O[C@H]1c4nc5ccccc5cc4C[C@@]4(O)[C@@H](C2)N(C)CC[C@]314", "note": "[Compound 18, 17-methyl-6,7-dehydro-4,5α-epoxy-3-acetoxy-14β-hydroxy-6,7,2',3'-quinolinomorphinane tartaric acid salt]", "values": [{"measurement": "Mean Rhythmic Bladder Contraction-inhibiting Time", "setting": "[4]", "result": 6.6, "unit": "min"}]}, {"molecule": "COc1ccc2c3c1O[C@H]1c4nc5ccccc5cc4C[C@@]4(O)[C@@H](C2)N(C)CC[C@]314", "note": "[Compound 19, 17-methyl-6,7-dehydro-4,5α-epoxy-3-methoxy-14β-hydroxy-6,7,2',3'-quinolinomorphinan tartaric acid salt]", "values": [{"measurement": "Mean Rhythmic Bladder Contraction-inhibiting Time", "setting": "[4]", "result": 7.7, "unit": "min"}]}, {"molecule": "CN1CC[C@]23c4c5cccc4O[C@H]2c2nc4ccccc4cc2C[C@@]3(O)[C@H]1C5", "note": "[Compound 20, 17-methyl-6,7-dehydro-4,5α-epoxy-14β-hydroxy-6,7,2',3'-quinolinomorphinan tartaric acid salt]", "values": [{"measurement": "Mean Rhythmic Bladder Contraction-inhibiting Time", "setting": "[4]", "result": 11.1, "unit": "min"}]}, {"molecule": "Oc1ccc2c3c1O[C@H]1c4nc5ccccc5cc4C[C@@]4(O)[C@@H](C2)N(CC2CC2)CC[C@]314", "note": "[Compound 21, 17-cyclopropylmethyl-6,7-dehydro-4,5α-epoxy-3,14β-dihydroxy-6,7,2',3'-quinolinomorphinan methanesulfonic acid salt]", "values": [{"measurement": "Mean Rhythmic Bladder Contraction-inhibiting Time", "setting": "[2]", "result": 10.0, "unit": "min"}]}, {"molecule": "C=CCN1CC[C@]23c4c5ccc(O)c4O[C@H]2c2nc4ccccc4cc2C[C@@]3(O)[C@H]1C5", "note": "[Compound 22, 17-allyl-6,7-dehydro-4,5α-epoxy-3,14β-dihydroxy-6,7,2',3'-quinolinomorphinan methanesulfonic acid salt]", "values": [{"measurement": "Mean Rhythmic Bladder Contraction-inhibiting Time", "setting": "[5]", "result": 1.4, "unit": "min"}]}, {"molecule": "Cc1ccc(CCN2CC[C@]34c5c6ccc(O)c5O[C@H]3c3nc5ccccc5cc3C[C@@]4(O)[C@H]2C6)cc1", "note": "[Compound 23, 17-(4-methylphenyl)ethyl-6,7-dehydro-4,5α-epoxy-3,14β-dihydroxy-6,7,2',3'-quinolinomorphinan methanesulfonic acid salt]", "values": [{"measurement": "Mean Rhythmic Bladder Contraction-inhibiting Time", "setting": "[2]", "result": 9.2, "unit": "min"}]}, {"molecule": "Oc1ccc2c3c1O[C@H]1c4nc5ccccc5cc4C[C@@]4(O)[C@@H](C2)N(CCc2ccc(F)cc2)CC[C@]314", "note": "[Compound 24, 17-(4-fluorophenyl)ethyl-6,7-dehydro-4,5α-epoxy-3,14β-dihydroxy-6,7,2',3'-quinolinomorphinan methanesulfonic acid salt]", "values": [{"measurement": "Mean Rhythmic Bladder Contraction-inhibiting Time", "setting": "[2]", "result": 2.3, "unit": "min"}]}]}
